Reference: patent publication US20240199613A1 (TAKEDA PHARMACEUTICAL COMPANY LIMITED, priority 2021, published 2024)
pEC50: −log10 of the molar value. Where a name gives a salt, the structure may show the parent alone.

How the values were obtained:
[1] = target: human activated kallikrein enzyme (Homo sapiens, UniProt P03952); test: Inhibition of activated plasma kallikrein, fluorogenic peptide substrate (PFR-AMC) assay, 500 pM enzyme format; assay type: biochemical; settings: 500 pM activated kallikrein, 300 uM PFR-AMC, 30 min preincubation, 10 min reaction, room temperature; read-out: Primary Dose Response Assay: Average EC50
human activated kallikrein enzyme, sequence (P03952 391-638 limits assumed): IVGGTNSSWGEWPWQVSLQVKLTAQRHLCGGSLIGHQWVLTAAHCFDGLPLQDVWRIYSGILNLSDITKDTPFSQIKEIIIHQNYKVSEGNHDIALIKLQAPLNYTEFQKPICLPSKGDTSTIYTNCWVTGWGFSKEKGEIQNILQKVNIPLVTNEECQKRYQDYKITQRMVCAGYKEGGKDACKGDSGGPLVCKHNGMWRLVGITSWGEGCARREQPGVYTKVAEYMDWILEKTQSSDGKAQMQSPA
human activated kallikrein enzyme, sequence (P03952 20-390 partner limits assumed): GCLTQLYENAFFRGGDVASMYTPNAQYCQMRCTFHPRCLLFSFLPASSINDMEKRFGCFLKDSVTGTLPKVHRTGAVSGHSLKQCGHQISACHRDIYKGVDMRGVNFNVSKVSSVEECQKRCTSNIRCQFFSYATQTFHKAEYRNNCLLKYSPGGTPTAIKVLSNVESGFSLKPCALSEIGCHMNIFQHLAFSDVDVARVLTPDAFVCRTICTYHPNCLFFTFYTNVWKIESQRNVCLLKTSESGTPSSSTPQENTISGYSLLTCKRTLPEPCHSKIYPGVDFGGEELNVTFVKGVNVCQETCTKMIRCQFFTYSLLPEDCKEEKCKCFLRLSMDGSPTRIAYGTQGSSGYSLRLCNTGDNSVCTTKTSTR
Summary of the method: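 500 pM enzyme preincubated 30 min at room temperature with inhibitor in 20 mM Tris pH 7.5, 150 mM NaCl, 1 mM EDTA, 0.1% PEG-400, 0.1% Triton X-100. Reaction started with 300 uM PFR-AMC and run 10 min at room temperature. Fluorescence read at 380 nm excitation/460 nm emission.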

plasma kallikrein = target: T1, plasma kallikrein (Homo sapiens, UniProt P03952); test: Neat human plasma assay: contact pathway-activated (FXIIa) plasma, PFR-AMC substrate; assay type: biochemical; settings: citrated human plasma (78% final), 10 nM human FXIIa, 100 μM PFR-AMC, room temperature
T1 construct: from tissue; host or cells: sodium citrate collected human plasma (78% final)
T1 sequence (P03952 391-638 limits assumed): as the sequence (P03952 391-638 limits assumed) above
T1 sequence (P03952 20-390 partner limits assumed): as the sequence (P03952 20-390 partner limits assumed) above
Summary of the method: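 Compounds spiked into citrated human or rat plasma (78% final), or plasma taken from orally or IV dosed rats, activated with 10 nM human FXIIa; 100 μM PFR-AMC cleavage read at 360/480 nm for 5 min, room temperature. Rates vs concentration fit to 4-parameter IC50/IC90 equation.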

Row | SMILES | pEC50 [1] | IC90 (plasma kallikrein)
1 | Cc1ccnc([C@H]2C[C@@H]2c2cc(N3CC4(COC4)C3)c3ccc(NCc4cn5cc(C6CC6)cc(N6CC(=O)N(C)C6=O)c5n4)cc3n2)n1 [Example 36, 1-(6-cyclopropyl-2-(((2-((1S,2S)-2-(4-methylpyrimidin-2-yl)cyclopropyl)-4-(2-oxa-6-azaspiro[3.3]heptan-6-yl)quinolin-7-yl)amino)methyl)imidazo[1,2-a]pyridin-8-yl)-3-methylimidazolidine-2,4-dione] | ≥ 9.00 | ≤ 400 nM
2 | Cc1ccnc([C@H]2C[C@@H]2C2=NS(=O)(=O)c3ccc(NCc4cn5cc(C6CC6)cc(F)c5n4)cc3N2)n1 [Example 105, 6-(((6-cyclopropyl-8-fluoroimidazo[1,2-a]pyridin-2-yl)methyl)amino)-3-((1S,2S)-2-(4-methylpyrimidin-2-yl)cyclopropyl)-4H-benzo[e][1,2,4]thiadiazine 1,1-dioxide] | ≥ 9.00 | ≤ 400 nM
3 | Cc1ccnc([C@H]2C[C@@H]2c2nc3cc(NCc4cn5cc(C6CC6)cc(N6CC(=O)N(C)C6=O)c5n4)cnc3c(=O)[nH]2)n1 (racemic) [Example 9, rac-1-(6-cyclopropyl-2-(((2-((1S*,2S*)-2-(4-methylpyrimidin-2-yl)cyclopropyl)-4-oxo-3,4-dihydropyrido[3,2-d]pyrimidin-7-yl)amino)methyl)imidazo[1,2-a]pyridin-8-yl)-3-methylimidazolidine-2,4-dione] | ≥ 9.00 | 1500 to 10000 nM
4 | Cc1ccnc([C@H]2C[C@@H]2c2cc(N(C)C)c3ccc(NCc4cn5cc(C6CC6)cc(N6CC(=O)N(C)C6=O)c5n4)cc3n2)n1 (racemic) [Example 29, rac-1-(6-cyclopropyl-2-(((4-(dimethylamino)-2-((1S*,2S*)-2-(4-methylpyrimidin-2-yl)cyclopropyl)quinolin-7-yl)amino)methyl)imidazo[1,2-a]pyridin-8-yl)-3-methylimidazolidine-2,4-dione] | ≥ 9.00 | ≤ 400 nM
5 | Cc1ccnc([C@H]2C[C@@H]2C2=NS(=O)(=O)c3ccc(OCc4cn5cc(C6CC6)ccc5n4)cc3N2)n1 [Example 91, 6-((6-cyclopropylimidazo[1,2-a]pyridin-2-yl)methoxy)-3-((1S,2S)-2-(4-methylpyrimidin-2-yl)cyclopropyl)-4H-benzo[e][1,2,4]thiadiazine 1,1-dioxide] | ≥ 9.00 | 1500 to 10000 nM
6 | Cc1ccnc([C@H]2C[C@@H]2c2ccc3ccc(NCc4cn5cc(C6CC6)cc(N6CC(=O)N(C)C6=O)c5n4)cc3n2)n1 (single isomer, unassigned) [Example 59] | ≥ 9.00 | 1500 to 10000 nM
7 | COc1cc(NCc2cn3cc(C)cc(N4CC(=O)N(C)C4=O)c3n2)cc2nc([C@H]3C[C@@H]3c3nccc(C)n3)ccc12 (racemic) [Example 104, rac-1-(2-(((5-methoxy-2-((1S*,2S*)-2-(4-methylpyrimidin-2-yl)cyclopropyl)quinolin-7-yl)amino)methyl)-6-methylimidazo[1,2-a]pyridin-8-yl)-3-methylimidazolidine-2,4-dione] | 8.00 to 9.00 | 400 to 1500 nM
8 | CN1C(=O)CN(c2cc(C3CC3)cn3cc(CNc4ccc5c(=O)[nH]c([C@H]6C[C@@H]6c6cccc(Cl)c6)nc5c4)nc23)C1=O [Example 6, 1-(2-(((2-((1S,2S)-2-(3-chlorophenyl)cyclopropyl)-4-oxo-3,4-dihydroquinazolin-7-yl)amino)methyl)-6-cyclopropylimidazo[1,2-a]pyridin-8-yl)-3-methylimidazolidine-2,4-dione] | 8.00 to 9.00 | 1500 to 10000 nM
9 | Cc1ccnc([C@H]2C[C@@H]2c2cc(N3CC4(COC4)C3)c3ccc(N(C)Cc4cn5cc(C6CC6)cc(N6CC(=O)N(C)C6=O)c5n4)cc3n2)n1 [Example 98, 1-(6-cyclopropyl-2-((methyl(2-((1S,2S)-2-(4-methylpyrimidin-2-yl)cyclopropyl)-4-(2-oxa-6-azaspiro[3.3]heptan-6-yl)quinolin-7-yl)amino)methyl)imidazo[1,2-a]pyridin-8-yl)-3-methylimidazolidine-2,4-dione] | ≥ 9.00 | ≤ 400 nM
10 | Cc1ccnc([C@H]2C[C@@H]2c2nc3cc(NCc4cn5cc(C6CC6)cc(N6CC(=O)N(C)C6=O)c5n4)ncc3c(=O)[nH]2)n1 (racemic) [Example 7, rac-1-(6-cyclopropyl-2-(((2-((1S*,2S*)-2-(4-methylpyrimidin-2-yl)cyclopropyl)-4-oxo-3,4-dihydropyrido[4,3-d]pyrimidin-7-yl)amino)methyl)imidazo[1,2-a]pyridin-8-yl)-3-methylimidazolidine-2,4-dione] | ≥ 9.00 | 400 to 1500 nM
11 | Cc1ccnc([C@H]2C[C@@H]2C2=NS(=O)(=O)c3ccc(OCc4cn5cc(C6CC6)ccc5n4)cc3N2)n1 (racemic) [Example 92, rac-6-((6-cyclopropylimidazo[1,2-a]pyridin-2-yl)methoxy)-3-((1S*,2S*)-2-(4-methylpyrimidin-2-yl)cyclopropyl)-4H-benzo[e][1,2,4]thiadiazine 1,1-dioxide] | ≥ 9.00 | 1500 to 10000 nM
12 | Cc1ccnc([C@H]2C[C@@H]2c2ccc3ccc(N4C[C@@H](O)C[C@@H]4c4cn5cc(C6CC6)cc(N6CC(=O)N(C)C6=O)c5n4)cc3n2)n1 (relative stereo) [Example 68, rac-1-(6-cyclopropyl-2-((2R,4S)-4-hydroxy-1-(2-((1S*,2S*)-2-(4-methylpyrimidin-2-yl)cyclopropyl)quinolin-7-yl)pyrrolidin-2-yl)imidazo[1,2-a]pyridin-8-yl)-3-methylimidazolidine-2,4-dione] | 8.00 to 9.00 | 1500 to 10000 nM
13 | Cc1ccnc([C@H]2C[C@@H]2c2ccc3cnc(NCc4cn5cc(C6CC6)cc(N6CC(=O)N(C)C6=O)c5n4)cc3n2)n1 (racemic) [Example 15, rac-1-(6-cyclopropyl-2-(((2-((1S*,2S*)-2-(4-methylpyrimidin-2-yl)cyclopropyl)-1,6-naphthyridin-7-yl)amino)methyl)imidazo[1,2-a]pyridin-8-yl)-3-methylimidazolidine-2,4-dione formic acid salt] | 8.00 to 9.00 | 1500 to 10000 nM
